Experimental findings from ChEMBL document CHEMBL1201862, “PubChem BioAssay data set” (2004) are described below.

Experiment [1] deals with T1, Heat shock factor protein 1 (Mus musculus, UniProt P38532).
T1 sequence (P38532 whole entry): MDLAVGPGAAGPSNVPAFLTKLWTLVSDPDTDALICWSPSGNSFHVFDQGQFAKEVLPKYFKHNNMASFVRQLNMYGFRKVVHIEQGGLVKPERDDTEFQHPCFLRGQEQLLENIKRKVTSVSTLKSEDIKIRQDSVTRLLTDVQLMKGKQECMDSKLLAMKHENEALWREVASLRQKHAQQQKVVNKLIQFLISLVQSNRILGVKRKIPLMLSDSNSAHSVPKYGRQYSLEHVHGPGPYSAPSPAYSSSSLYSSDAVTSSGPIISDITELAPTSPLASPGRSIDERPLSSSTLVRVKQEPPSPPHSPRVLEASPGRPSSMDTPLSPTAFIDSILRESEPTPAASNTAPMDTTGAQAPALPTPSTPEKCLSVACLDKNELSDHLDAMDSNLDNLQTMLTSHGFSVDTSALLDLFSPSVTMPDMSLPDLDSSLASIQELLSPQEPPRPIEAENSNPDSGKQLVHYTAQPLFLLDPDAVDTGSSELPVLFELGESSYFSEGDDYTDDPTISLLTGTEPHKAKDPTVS
Kind of experiment: decrease of HSF1-responsive luciferase luminescence – cell-based, NIH3T3, dose retest, confirmation (AID 2382).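 Note: NIH3T3 fibroblasts with HSF1-driven luciferase reporter stressed by proteasome inhibitor MG132; luminescence from HSF1-driven luciferase expression after 8 hours of MG132 stress.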 The experiment is classed as functional.

Experiment [2] can be described thus: NIH3T3 cell viability loss – ATP luminescence, mouse fibroblasts, counter-screen, dose response (AID 2010).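 Note: cells exposed to compound for about 90 hours before reading.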 The experiment is classed as functional, cell-based.
Experiment [3] in a line: Trypanosoma cruzi growth suppression in host cells – NIH3T3 host cells, beta-gal luminescence, confirmation (AID 2044).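 Note: intracellular parasites grown in NIH/3T3 mouse fibroblasts as host cells; luminescent beta-galactosidase reporter signal from transgenic T. cruzi replicating inside host cells; inhibitors lower the luminescence signal.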 Format: functional, cell-based.
The next experiment deals with Cytochrome P450 2D6 (Homo sapiens, UniProt P10635).
Cytochrome P450 2D6, sequence (P10635 whole entry): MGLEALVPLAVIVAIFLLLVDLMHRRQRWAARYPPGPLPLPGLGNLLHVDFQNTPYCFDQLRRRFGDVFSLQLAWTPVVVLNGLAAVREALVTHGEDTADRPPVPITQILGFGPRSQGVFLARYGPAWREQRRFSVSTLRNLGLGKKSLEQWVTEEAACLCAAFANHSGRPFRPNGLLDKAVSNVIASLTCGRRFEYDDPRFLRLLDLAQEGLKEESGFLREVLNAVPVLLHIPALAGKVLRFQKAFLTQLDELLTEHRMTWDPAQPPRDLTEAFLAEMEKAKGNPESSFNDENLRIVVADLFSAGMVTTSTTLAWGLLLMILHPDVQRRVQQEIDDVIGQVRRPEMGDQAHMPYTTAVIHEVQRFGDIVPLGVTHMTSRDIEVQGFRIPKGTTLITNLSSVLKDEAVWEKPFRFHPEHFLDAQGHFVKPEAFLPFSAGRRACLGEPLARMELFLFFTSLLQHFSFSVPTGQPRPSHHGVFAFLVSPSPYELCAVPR
The subject of experiment [4] is Streptococcus sp. 'group A'. Put plainly: Streptococcus pyogenes SK(-)GAS viability under kanamycin – luminescence, BacTiterGlo, confirmation, counter-screen for streptokinase expression inhibitor project, dose response (AID 1900). The experiment is classed as functional, organism-based. (In general: The purpose of a counterscreen is to sort out artefacts and off-target activity.)

A further experiment has as its system Streptococcus. Put plainly: GAS UMAA2166 growth inhibition – luminescence, BacTiterGlo, counter-screen for streptokinase expression inhibitor project, dose response (AID 1915).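 Note: potency for reduction of bacterial viability or growth.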 The experiment is classed as functional, organism-based.
The target of the next experiment is T2, Streptokinase A (Streptococcus pyogenes serotype M1, UniProt P10520).
T2 sequence (P10520 whole entry): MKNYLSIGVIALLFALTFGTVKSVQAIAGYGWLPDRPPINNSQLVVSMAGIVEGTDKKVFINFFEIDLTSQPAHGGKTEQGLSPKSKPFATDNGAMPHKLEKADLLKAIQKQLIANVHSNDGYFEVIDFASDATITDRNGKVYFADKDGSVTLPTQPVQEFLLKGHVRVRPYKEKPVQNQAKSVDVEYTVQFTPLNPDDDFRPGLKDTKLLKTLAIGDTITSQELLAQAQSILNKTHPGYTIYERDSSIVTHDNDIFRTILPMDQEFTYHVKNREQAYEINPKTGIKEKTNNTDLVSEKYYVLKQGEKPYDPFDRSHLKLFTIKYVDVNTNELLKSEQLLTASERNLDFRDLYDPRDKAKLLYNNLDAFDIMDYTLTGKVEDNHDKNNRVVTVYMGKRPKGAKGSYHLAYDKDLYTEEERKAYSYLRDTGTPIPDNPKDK
Put plainly: viability-normalized secreted streptokinase activity reduction – plasminogen activation absorbance, OD405, dose response (AID 1914).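 Note: secreted streptokinase activity via plasminogen activation per viability signal from cell pellet.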 The experiment is classed as functional, Streptococcus pyogenes M1 GAS.

A further experiment has as its target Paired box protein Pax-8 (Homo sapiens, UniProt Q06710). Put plainly: PAX8 transcriptional activity inhibition in RMG-I – RMG-I cells, luciferase, cherry-pick, dose response (AID 687027).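 Note: luciferase reporter driven by Pax8 target thyroperoxidase promoter measured by SteadyGlo luminescence.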 Format: functional, cell-based.
The next experiment concerns the target T3, Cytochrome P450 1A2 (Homo sapiens, UniProt P05177).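 Note: PubChem cytochrome P450 panel assay, CYP1A2 panel member.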
T3 sequence (P05177 whole entry): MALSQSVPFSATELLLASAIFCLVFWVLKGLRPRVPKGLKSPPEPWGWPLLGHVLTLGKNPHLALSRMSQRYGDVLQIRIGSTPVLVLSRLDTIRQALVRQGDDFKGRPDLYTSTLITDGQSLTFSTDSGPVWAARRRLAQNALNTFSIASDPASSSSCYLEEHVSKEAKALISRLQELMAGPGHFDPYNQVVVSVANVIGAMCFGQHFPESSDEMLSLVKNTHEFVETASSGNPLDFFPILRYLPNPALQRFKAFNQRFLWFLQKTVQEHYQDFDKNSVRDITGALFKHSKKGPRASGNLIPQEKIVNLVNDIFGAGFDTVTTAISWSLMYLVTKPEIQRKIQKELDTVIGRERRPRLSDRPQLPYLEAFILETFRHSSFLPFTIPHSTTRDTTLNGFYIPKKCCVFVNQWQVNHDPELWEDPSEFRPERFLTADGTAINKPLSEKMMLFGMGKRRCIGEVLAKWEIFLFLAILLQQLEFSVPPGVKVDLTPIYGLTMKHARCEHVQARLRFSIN

Active and inactive are the calls of the source. Cut-off read from the data, not from the text of the source, for most assays here: actives have a measured EC50 and inactives only a lower limit.

Paired box protein Pax-8, sequence (Q06710 whole entry): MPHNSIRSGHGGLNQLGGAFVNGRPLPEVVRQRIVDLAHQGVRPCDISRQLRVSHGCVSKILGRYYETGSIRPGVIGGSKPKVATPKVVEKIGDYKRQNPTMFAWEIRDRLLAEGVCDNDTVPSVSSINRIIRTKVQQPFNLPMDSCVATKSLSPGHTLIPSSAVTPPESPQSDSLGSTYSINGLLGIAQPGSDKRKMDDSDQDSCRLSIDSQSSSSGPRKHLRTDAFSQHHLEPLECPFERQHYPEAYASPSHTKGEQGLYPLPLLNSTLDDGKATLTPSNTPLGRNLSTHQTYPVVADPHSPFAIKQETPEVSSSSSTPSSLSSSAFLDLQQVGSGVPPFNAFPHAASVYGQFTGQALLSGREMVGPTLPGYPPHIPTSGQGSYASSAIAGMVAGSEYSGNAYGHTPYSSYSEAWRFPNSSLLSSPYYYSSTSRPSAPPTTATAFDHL

Turning to `CC1CCCN(CCCOc2ccc(Cl)cc2Br)C1` (stereo unspecified), the concentration for a half-maximal effect (EC50) (usually the concentration giving half of the maximal effect) in experiment [1] is on record as > 195 µM (not active).
Consider `COc1ccccc1NC(=O)/C=C1\SCC(=O)N1C`, for which the figures for the EC50 in [2] and in [3] were > 60 µM (not active) and 0.949 µM (active), respectively.
Regarding `CC1CCN(S(=O)(=O)c2ccc(NC(=O)CN3CCN(C)CC3)cc2)CC1`, the EC50 is > 60 µM (not active) in experiment [2] and 0.738 µM (active) in experiment [3].
As for `COc1ccccc1-c1cc(NCc2cccc(C)c2)ncn1`, the AC50 (in general, the midpoint of the concentration-response curve, whichever way the signal moves) at Cytochrome P450 2D6 is 20 µM (inconclusive).
Still for that read-out and setting: next, `Cc1nc2cnc(Oc3ccccc3)nc2n(Cc2cccs2)c1=O`: 31.6 µM (inconclusive).
`Cc1nc2cc(-c3ccccc3)nn2c(C)c1CCC(=O)NC(C)c1ccc2c(c1)OCCO2` (stereo unspecified): in [1], the 50% effective concentration (EC50) was > 195 µM (not active).
On to `CCCCCCn1c(=O)c(C(=O)N/N=C/c2cccc(F)c2)c(O)c2ccccc21`, for which the EC50 in [4] was 11.6 µM (active); in the experiment with Streptococcus, 16.1 µM (active).
As to `CCOc1ccc(N(CC(=O)NCc2ccc(C)cc2)S(=O)(=O)c2c(C)nc(O)nc2O)cc1`, the EC50 (in experiment [4]; with Streptococcus; at Streptokinase A) was > 150 µM (not active) in each case.
On to `COc1ccc(-c2ncn(CCC#N)c2[N+](=O)[O-])cc1`, for which the values for the EC50 (in experiment [4]; with Streptococcus; on Streptokinase A) were 3.52 µM (active), 5.92 µM (active) and > 150 µM (not active), respectively.
In the case of `O=C(c1cnccn1)N1CCC2(CCCN(Cc3ccccc3)C2)CC1`, the AC50 on Cytochrome P450 2D6 was 7.94 µM (inconclusive).
For `C[C@@H]1CCCCO[C@@H](CN(C)S(=O)(=O)c2ccc(Cl)cc2)[C@H](C)CN([C@@H](C)CO)C(=O)c2cc(NS(=O)(=O)c3ccc(Cl)cc3)ccc2O1`, on Paired box protein Pax-8, the concentration at half-maximal activity (AC50) was 2.78 µM (active).
Turning to `O=C(Nc1ccc(S(=O)(=O)N2CCc3ccccc32)cc1)c1ccc2c(c1)OCO2`, the results for the half-maximal effective concentration (EC50) in [2] and in [3] were > 60 µM (not active) and 3.4 µM (active), respectively.
On to `C[C@H]1CCCCO[C@@H](CN(C)Cc2ccc(C(F)(F)F)cc2)[C@@H](C)CN([C@@H](C)CO)C(=O)c2cc(NS(=O)(=O)c3cccs3)ccc2O1`, for which the AC50 on Paired box protein Pax-8 was 7.2 µM (active).
Take `Cc1nc(Nc2ccc3c(c2)OCCO3)c2nnn(Cc3ccccc3Cl)c2n1`: the EC50 was > 60 µM (not active) in experiment [2], 2.74 µM (active) in experiment [3] and 3.43 µM (active) in experiment [1].
As for `COC(=O)[C@@]12C[C@@H](CC(=O)N3CCN(C(=O)c4ccco4)CC3)C(=O)N(Cc3ccco3)C1=CCC(C)(C)C2`, the concentration at half-maximal activity (AC50) at Paired box protein Pax-8 was 2.44 µM (active).
Turning to `Cc1noc(C)c1COc1ccc(C(=O)OCC(=O)Nc2c(C)n(C)n(-c3ccccc3)c2=O)cc1`, the EC50 in experiment [1] was > 195 µM (not active).
Same read-out and setting: next, `O=C(N/N=C/c1ccc(F)cc1)c1ccc(OCc2ccccc2)cc1`: > 195 µM (not active).
As for `CC(C)/C(=N/Nc1ccccc1[N+](=O)[O-])c1ccccc1`, the EC50 in experiment [4] was 6.63 µM (active); with Streptococcus it was 52.5 µM (active); on Streptokinase A, 18.4 µM (active).
For the compound `CCCn1c(=O)n(C)c(=O)c2c(SCC(=O)NC34CC5CC(CC(C5)C3)C4)nc(CC(C)C)nc21`, the EC50 in experiment [2] and in experiment [3] was > 60 µM (not active) each time.
For `Cc1nn(-c2ccccc2)c(Cl)c1C1C(C#N)=C(N)Oc2c1c(=O)oc1ccccc21` (stereo unspecified), the EC50 in [4] is 0.197 µM (active); in the experiment with Streptococcus, 0.344 µM (active).
Take `O=S(=O)(NCc1ccccn1)c1ccc(F)cc1`: the EC50 in experiment [1] is given as > 195 µM (not active).
As to `CCOc1ccc(NC(=O)C2CCCN(c3nn4c(=O)cc(C)nc4s3)C2)cc1` (stereo unspecified), the EC50 in experiment [1] was > 195 µM (not active).
For the compound `O=C1NC(=O)N(Cc2ccccc2)C(=O)/C1=C/NCCN1CCNCC1`, the EC50 in experiment [1] was > 195 µM (not active).
Regarding `Cc1ccc(CN2CCN(Cc3ccccc3)CC2)cc1`, the EC50 in [2] was > 60 µM (not active); in experiment [3], 0.143 µM (active).
In the same order, the values of `O=C(Cn1cnc2cc([N+](=O)[O-])ccc2c1=O)Nc1ccc2c(c1)CCC2` are > 60 µM (not active) and 0.5 µM (active).
In the case of `COc1cc(CNCc2cccs2)ccc1OCC(N)=O`, on Cytochrome P450 1A2, the AC50 is 39.8 µM (inconclusive).
For the compound `COCC1=C(C(=O)OC(C)OC(=O)OC(C)C)N2C(=O)[C@@H](NC(=O)/C(=N\OC)c3csc(N)n3)[C@H]2SC1` (stereo partly specified) [CEFPODOXIME PROXETIL], the EC50 in [4] is 0.697 µM (active); with Streptococcus it was 0.987 µM (active).
Turning to `O=C(O)CCN1C(=S)CSC1=S`, the AC50 at Cytochrome P450 1A2 was 5.01 µM (inconclusive).
Turning to `Cc1ccc(OCc2nnc(SC(C)C(=O)O)n2-c2ccccc2)cc1` (stereo unspecified), the EC50 in experiment [1] is recorded as > 195 µM (not active).
With `O=C(O)c1cccc(NC(=S)NC(=O)c2ccc3ccccc3c2)c1`, the EC50 in experiment [1] is 20.6 µM (active).
Same read-out and setting: in the case of `O=C(CN1C(=O)C2C3C=CC(C3)C2C1=O)OCC(=O)c1ccc(Br)cc1` (stereo unspecified) it was > 195 µM (not active).
With `Cc1ccc2oc(=O)cc(CN3CCN(C/C=C/c4ccccc4)CC3)c2c1`, the figures for the EC50 in [2] and in experiment [3] were > 60 µM (not active) and 0.293 µM (active), respectively.
As to `CSCC[C@H](NC(=O)N1CCn2c1nc1ccccc12)C(=O)NC1CC1`, the EC50 in experiment [1] is reported as > 195 µM (not active).
Consider `Oc1ccccc1/C=N/NC(=S)NC1CC2C=CC1C2` (stereo unspecified), for which the EC50 in experiment [4] is 5.04 µM (active); with Streptococcus, > 16 µM (not active); on Streptokinase A it was > 16 µM (not active).
As for `O=C(NCCCn1ccnc1)c1nn2c(C(F)(F)F)cc(-c3ccccc3)nc2c1Cl`, the EC50 (in experiment [4]; in the experiment on Streptococcus; on Streptokinase A) was > 150 µM (not active) each time.
For `O=C(CSc1nc(Nc2ccccc2)nc(N2CCOCC2)n1)Nc1ccc([N+](=O)[O-])cc1`, the figures for the EC50 in [2] and in [3] were > 60 µM (not active) and 2.18 µM (active), respectively.
Consider `O=C(Nc1ccc(Br)cc1)C1CCC(=O)N1Cc1ccccc1Cl` (stereo unspecified), for which the AC50 on Cytochrome P450 1A2 was 14.1 µM (inconclusive).
`COc1cccc(-n2ccnc2SCC(=O)Nc2ccccc2F)c1`: in experiment [1], the concentration for a half-maximal effect (EC50) is on record as > 195 µM (not active).
As for `CCN1CCN(CCOc2ccc(Cl)cc2)CC1`, the figures for the EC50 in experiment [2] and in experiment [3] were > 30 µM (not active) and 0.176 µM (active), respectively.
Turning to `CCCc1nnc(NC(=O)CCC(=O)N2CCN(S(=O)(=O)c3ccc(F)cc3)CC2)s1`, the EC50 in experiment [1] is reported as > 195 µM (not active).
For `CN(C)C(=O)c1ccc(-c2cncnc2NCc2ccccc2)cc1`, the AC50 on Cytochrome P450 1A2 was 20 µM (inconclusive).
Turning to `COC(=O)c1ccc(N2CCC(c3cc(-c4ccc(OC)cc4)[nH]n3)CC2)c([N+](=O)[O-])c1`, the figures for the EC50 (in experiment [4]; in the experiment with Streptococcus) were 3.87 µM (active) and 44.2 µM (active), respectively.
`Cc1noc(C)c1NC(=O)Nc1cccc2c1O[C@H](CN(C)Cc1ccc(C(F)(F)F)cc1)[C@H](C)CN([C@@H](C)CO)C2=O`: on Paired box protein Pax-8, the half-maximal activity concentration (AC50) was 27.5 µM (active).
Take `COc1ccc(NC(=O)c2ccc([N+](=O)[O-])cc2[N+](=O)[O-])c(OC)c1`: the EC50 in experiment [2] is > 30 µM (not active); in experiment [3], 1.16 µM (active).
On to `CCOC(=O)C1CCN(c2c(NCc3ccc(C(=O)Nc4ccc(C)cc4)cc3)c(=O)c2=O)CC1`, for which, in experiment [1], the 50% effective concentration (EC50) is > 195 µM (not active).
